Reference: paper PMC3356272, “An Analogue of the Antibiotic Teicoplanin Prevents Flavivirus Entry In Vitro” (PLoS ONE, 2012)

Experiments:
DENV-2 NGC [1] = type: cell-based, dengue virus
YFV-17D [2] = type: cell-based, yellow fever virus
dengue reporter virus = type: cell-based
YFV-17D [3] = type: cell-based, yellow fever virus; remark: listed apart in the source
DENV subgenomic replicon = assay: DENV replicon system; type: cell-based, dengue virus; settings: BHK-Rep-Pac-LUC cells, luciferase at 72 hours
DiD-labeled DENV = assay: Fusion assay with DiD-labeled DENV; type: cell-based, dengue virus; settings: BS-C-1 cells; for membrane fusion activity of DENV, reference controls: NH4Cl 50 mM, chlorpromazine 60 µM
[4] = tested on: uninfected host cell cultures; assay: Cell counting with a Coulter Counter; type: cell-based; settings: 50 and 100 µM, cells counted with a Coulter Counter
DENV-2 = assay: Virucidal assay; settings: 50 µM, 1 h, 37°C, with or without RNase A
DENV-2 NGC [5] = assay: CPE-reduction assay; settings: 25 and 12.5 µM, Vero-B cells, day 8 p.i.

CC(C)(C)OC(=O)NC1C(=O)NC2Cc3ccc(c(Cl)c3)Oc3cc4cc(c3O)Oc3ccc(cc3Cl)C(O)C3NC(=O)C(NC(=O)C4NC(=O)C(NC2=O)c2cc(O)cc(c2)Oc2cc1ccc2O)c1ccc(O)c(c1)-c1c(O)cc(O)cc1C(C(=O)NC1C2CC4CC(C2)CC1C4)NC3=O (centres unmarked) [LCTA-949]
DENV E protein expression (DENV-2 NGC [1]): completely inhibited
YFV NS1 protein expression (YFV-17D [2]): completely inhibited
inhibition of DENV infection (dengue reporter virus): failed to efficiently inhibit
inhibition of viral replication and viral antigen expression (dengue reporter virus): nearly complete inhibition
inhibition of viral replication (YFV-17D [3]): nearly complete inhibition
protective activity against YFV (YFV-17D [3]): most of the protective activity of LCTA-949 was already lost
replication of the DENV subgenomic replicon (DENV subgenomic replicon): did not inhibit
membrane fusion activity of DENV (DiD-labeled DENV; 20 min p.i. at 37°C, 6.25-25.0 µM): markedly impaired
cytostatic effects [4]: some cytostatic effects
cytotoxicity (Vero-B cells): did not prove cytotoxic
viability of uninfected host cell cultures (Vero-B cells): did not reduce viability
CC50 (Vero-B cells; green monkey): > 100 µM
cytotoxic effects (P388D1 cells): No cytotoxic effects
direct virucidal activity (DENV-2): does not destroy the viral particle
DENV-2-induced CPE formation (DENV-2 NGC [5]): completely inhibited

Cl.N [ammonium chloride]
membrane fusion activity of DENV, reference controls (DiD-labeled DENV): efficiently reduced

CN(C)CCCN1c2ccccc2Sc2ccc(Cl)cc21 [chlorpromazine]
membrane fusion activity of DENV, reference controls (DiD-labeled DENV): efficiently reduced
